Laboratory results: PubChem BioAssay AID1963850 (Molecular Pharmacology Branch, DTP, NCI, 2024)
Values joined by “and” are separate entries in the source; they are usually repeats but may differ in a detail not shown here. Equal entries are not always repeated.

System: 192522-019-R-J2-PDC complex tumor spheroid viability
Test: Anticancer human tumor 192522-019-R-J2-PDC patient-derived colon adenocarcinoma cell line growth inhibition [POLQ]
Details: for viability, T/C: stronger effect = lower value
Method: Multicellular complex tumor spheroid response to Polymerase (POL) inhibitors (novobiocin, ART-558, RP6685) in combination with a variety of drugs and investigational agents in selected tumor cell lines
The POL inhibitors (novobiocin, ART-558, and RP6685) were evaluated both individually and in combination with standard of care and investigational anticancer small molecules within a complex spheroid model of solid tumors. . Complex spheroids include a stromal component modeled by human endothelial cells (HUVEC) and fibroblasts modeled by human mesenchymal stem cells (MSCs). The concentration ranges selected for each drug and investigational agent were based upon clinically achievable concentrations if the clinical Cmax of the agent was known.
Compounds. The drugs and investigational agents: novobiocin (NSC847541), ART-558 (NSC835418), RP-6685 (NSC848927), peposertib (NSC802822), ceralasertib (NSC780249), elimusertib (NSC800525), camonsertib (NSC841442), AZD-1390 (NSC803789), olaparib (NSC753686), talazoparib (NSC767125), rucaparib (NSC756644), sotorasib (NSC818433), MRTX-1133 (NSC836407), SN-38 (NSC673596), topotecan (NSC609699), epotoside (NSC141540), doxorubicin (NSC123127), gemcitabine (NSC613327), 5-fluorouracil (NSC19893), paclitaxel (NSC125973), vemurafenib (NSC761431), MSA-2 (NSC828583), SN-011 (NSC837082), adavosertib (NSC754352), prexasertib (NSC758257), carboplatin (NSC241240) and oxaliplatin (NSC266046), were obtained from the National Cancer Institute (NCI) Developmental Therapeutics Program Chemical Repository (21). The FDA-approved anticancer drug set is available from the Developmental Therapeutics Program at https://dtp.cancer.gov/organization/dscb/obtaining/. […] The stock solutions were prepared in dimethyl sulfoxide (DMSO, Sigma-Aldrich, St. Louis, MO, cat. D2650), except for the platinum compounds which were prepared in saline (Quality Biological, Gaithersburg, MD, cat. 114-055-101), at 800-fold the tested concentration and stored at -70 degrees C prior to their use. All drugs and investigational agents were tested over a range starting from a high concentration at or near the clinical Cmax and decreasing in half-log increments. If the clinical Cmax for an agent had not been determined, the highest concentration tested was 10 microM, except for SN-38, which was tested at a high concentration of 1 microM.
Cell Culture. All cells were maintained in an incubator at 37 degrees C and 5% CO2 with 95% humidity. The PDC lines were cultured according to standard operating procedures established by the NCI PDMR (https://pdmr.cancer.gov). Table 3 of the manuscript, lists the cell lines along with the number of the three cell types plated to form the mct-spheroids and media for tumor cell growth. After thawing, all PDC lines, except 997537-175-T-J1-PDC and 415267-285-R-J2-PDC, were cultured in Matrigel-coated flasks prepared with a working solution of 1X Ham's F-12 nutrient mix, without supplementation (Thermo Fisher Scientific, cat. 11765054), 100 U/mL penicillin-streptomycin (Thermo Fisher Scientific, cat. 15140122), and 2.5% Matrigel (Corning Inc., Corning, NY, cat. 354248) for the first three passages. The two PDC lines 997537-175-T-J1-PDC and 415267-285-R-J2-PDC were cultured on uncoated flasks. The 857933-349-R-J2-PDC line was cultured in 6C/Colon 1B media containing advanced DMEM/F-12 (Thermo Fisher Scientific, cat. 12634028), 10 mM HEPES (Thermo Fisher Scientific, cat. 15630080), 1X GlutaMAX supplement (Thermo Fisher Scientific, cat. 35050061), 0.1 mg/mL primocin (InvivoGen, San Diego, CA, cat. ant-pm-2), 10% defined fetal bovine serum, heat inactivated (HyClone Laboratories Inc., Logan, UT, cat. SH30070.03HI), 50% L-WRN conditioned media (ATCC, cat. CRL-3276), 1.25 mM N-Acetyl-L-cysteine (Sigma-Aldrich, cat. A9165), 10 mM nicotinamide (Sigma-Aldrich, cat. N0636), 1X B-27 supplement (Thermo Fisher Scientific, cat. 17504044), 1X N-2 supplement (Thermo Fisher Scientific, cat. […]
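Also: spheroids exposed to drugs for seven days before reading.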
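For viability, T/C in this document: 100% = DMSO vehicle control viability in luminescence.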

CC1COCCN1c1cc(C2(S(C)(=N)=O)CC2)nc(-c2ccnc3[nH]ccc23)n1 (centres undefined)
viability, T/C (compound 0.0316 µM): 102% (2×) and 110% | viability, T/C (compound 0.1 µM): 90% and 103% and 101% | viability, T/C (compound 0.316 µM): 97% and 97.9% and 103% | viability, T/C (compound 1 µM): 90.6% and 100% and 91.6% | viability, T/C (compound 3.16 µM): 59.7% and 64.2% and 56.4% | viability, T/C (compound 10 µM): 31.6% and 37.1% and 31.1% | IC50 (curve of compound): 4.7 µM and 5.78 µM and 4.21 µM

CC(C)n1c(=O)n(C)c2cnc3cc(F)c(-c4ccc(OCCCN5CCCCC5)nc4)cc3c21 + COC1C(OC(N)=O)C(O)C(Oc2ccc3c(O)c(NC(=O)c4ccc(O)c(CC=C(C)C)c4)c(=O)oc3c2C)OC1(C)C
IC50 (curve of first compound, second compound 0.0316 µM): > 10 µM | IC50 (curve of first compound, second compound 0.1 µM): > 10 µM | IC50 (curve of first compound, second compound 0.316 µM): > 10 µM | IC50 (curve of first compound, second compound 1 µM): > 10 µM | IC50 (curve of first compound, second compound 3.16 µM): > 10 µM | IC50 (curve of first compound, second compound 10 µM): > 10 µM | viability, T/C (second compound 0.0316 µM, first compound 0.0316 µM): 107% | viability, T/C (second compound 0.0316 µM, first compound 0.1 µM): 93.2% | viability, T/C (second compound 0.0316 µM, first compound 0.316 µM): 115% | viability, T/C (second compound 0.0316 µM, first compound 1 µM): 112% | viability, T/C (second compound 0.0316 µM, first compound 3.16 µM): 112% | viability, T/C (second compound 0.0316 µM, first compound 10 µM): 93.9% | viability, T/C (second compound 0.1 µM, first compound 0.0316 µM): 97.5% | viability, T/C (second compound 0.1 µM, first compound 0.1 µM): 100% | viability, T/C (second compound 0.1 µM, first compound 0.316 µM): 108% | viability, T/C (second compound 0.1 µM, first compound 1 µM): 108% | viability, T/C (second compound 0.1 µM, first compound 3.16 µM): 104% | viability, T/C (second compound 0.1 µM, first compound 10 µM): 95.2% | viability, T/C (second compound 0.316 µM, first compound 0.0316 µM): 97.8% | viability, T/C (second compound 0.316 µM, first compound 0.1 µM): 95.5% | viability, T/C (second compound 0.316 µM, first compound 0.316 µM): 117% | viability, T/C (second compound 0.316 µM, first compound 1 µM): 115% | viability, T/C (second compound 0.316 µM, first compound 3.16 µM): 120% | viability, T/C (second compound 0.316 µM, first compound 10 µM): 106% | viability, T/C (second compound 1 µM, first compound 0.0316 µM): 96.8% | viability, T/C (second compound 1 µM, first compound 0.1 µM): 102% | viability, T/C (second compound 1 µM, first compound 0.316 µM): 104% | viability, T/C (second compound 1 µM, first compound 1 µM): 110% | viability, T/C (second compound 1 µM, first compound 3.16 µM): 94.9% | viability, T/C (second compound 1 µM, first compound 10 µM): 104% | viability, T/C (second compound 3.16 µM, first compound 0.0316 µM): 98.1% | viability, T/C (second compound 3.16 µM, first compound 0.1 µM): 107% | viability, T/C (second compound 3.16 µM, first compound 0.316 µM): 114% | viability, T/C (second compound 3.16 µM, first compound 1 µM): 108% | viability, T/C (second compound 3.16 µM, first compound 3.16 µM): 122% | viability, T/C (second compound 3.16 µM, first compound 10 µM): 102% | viability, T/C (second compound 10 µM, first compound 0.0316 µM): 118% | viability, T/C (second compound 10 µM, first compound 0.1 µM): 112% | viability, T/C (second compound 10 µM, first compound 0.316 µM): 114% | viability, T/C (second compound 10 µM, first compound 1 µM): 120% | viability, T/C (second compound 10 µM, first compound 3.16 µM): 110% | viability, T/C (second compound 10 µM, first compound 10 µM): 107%
